The results in this text go back to patent US8916702B2 (priority 2012, dated 2014).

pEC50: −log10 of the molar value. Where two headings read alike, the source gives them in different places.

The experiment has as its system HCV pseudoparticles (genotype 1a HCV E1 and E2 envelope, H77C isolate). Put plainly: microbe, parasite or virus in culture. The format is cell-based. The settings on record: Hepatitis C virus.
The mark [1] stands for this setting: Huh-7, 48 h, read-out: Activity (EC50 class), HCV pseudoparticle infection of Huh7 cells, luciferase 2 days after infection, EC50 expressed as class A/B.
[2] abbreviates: Huh-7, read-out: Activity (EC50 class), HCV pseudoparticles (genotype 1a, H77C) in Huh7 cells, EC50 expressed as class A/B.
Setting [3] is: Huh-7, 48 h, read-out: Activity (EC50 class), HCV pseudoparticles, Huh7 cells, luciferase 2 days after infection, average of duplicates.
The mark [4] stands for this setting: Huh-7, 48 h, HCV pseudoparticles (genotype 1a, H77C) in Huh7 cells, average of duplicate, luciferase 2 days after infection.
Where [5] appears, read: Huh-7, 48 h, HCV pseudoparticles, Huh7 cells, luciferase 2 days after infection, average of duplicates.

By pEC50 is commonly meant −log10 of the EC50, conventionally taken in molar units. For `CC(C)(CNC(=O)C(=O)Nc1ccc2c(c1)oc1ccccc12)CNC(=O)c1ccc(Nc2nc(NC3(c4ccc(Cl)cc4)CC3)nc(OCC(F)(F)F)n2)cc1` [Compound 1577], under setting [1], the pEC50 was 8.00 to 11.00.
Still for that read-out and setting: next, `CC(C)OC(=O)[C@H](CNC(=O)C(=O)N(C)C)NC(=O)c1ccc(Nc2nc(NC3(c4ccc(Cl)cc4)CC3)nc(OCC(F)(F)F)n2)cc1` [Compound 1021, (S)-isopropyl 2-(4-(4-(1-(4-chlorophenyl)cyclopropylamino)-6-(2,2,2-trifluoroethoxy)-1,3,5-triazin-2-ylamino)benzamido)-3-(2-(dimethylamino)-2-oxoacetamido)propanoate]: 8.00 to 11.00; `COC(=O)[C@H](CCNC(=O)C(=O)NC(C)(C)Cc1ccc(F)cc1)NC(=O)c1ccc(Nc2nc(NC3(c4ccc(Cl)cc4)CC3)nc(OCC(F)(F)F)n2)cc1` [Compound 1319]: 8.00 to 11.00.
For the compound `CC(C)(CNC(=O)C(=O)Nc1ccc(C#N)cc1F)CNC(=O)c1ccc(Nc2nc(NC3(c4ccc(Cl)cc4)CC3)nc(OCC(F)(F)F)n2)cc1` [Compound 3383], the pEC50 under setting [2] was 8.00 to 11.00.
As to `CN(CCCNC(=O)c1ccc(Nc2nc(NC3(c4ccc(Cl)cc4)CC3)nc(OCC(F)(F)F)n2)cc1)C(=O)C(=O)Nc1ccccc1` [Compound 3450], under setting [2], the pEC50 was 8.00 to 11.00.
Turning to `CC(C)(CNC(=O)C(=O)Nc1ccc(-n2cccn2)cc1)CNC(=O)c1ccc(Nc2nc(NC3(c4ccc(Cl)cc4)CC3)nc(OCC(F)(F)F)n2)cc1` [Compound 3795], the negative-log EC50 (pEC50) under setting [3] is 8.00 to 11.00.
For the compound `Cc1cc(NC(=O)C(=O)NCC(C)CNC(=O)c2ccc(Nc3nc(NC4(c5ccc(Cl)cc5)CC4)nc(OCC(F)(F)F)n3)cc2)no1` (stereo not drawn) [Compound 3334], the pEC50 under setting [4] was 10.21 and the negative logarithm of the EC50 (pEC50) under setting [2] was 8.00 to 11.00.
As for `Cn1cnc2ccc(NC(=O)C(=O)NCC(C)(C)CNC(=O)c3ccc(Nc4nc(NC5(c6ccc(Cl)cc6)CC5)nc(OCC(F)(F)F)n4)cc3)cc21` [Compound 3341], under setting [2], the pEC50 was 8.00 to 11.00.
For the compound `COC(=O)[C@H](CNC(=O)C(=O)Nc1ccc(N(C)c2nc(C)cc(C)n2)cc1)NC(=O)c1ccc(Nc2nc(NC3(c4ccc(Cl)cc4)CC3)nc(OCC(F)(F)F)n2)cc1` [Compound 3104], under setting [2], the pEC50 is 8.00 to 11.00.
Regarding `COC(=O)[C@H](CCNC(=O)C(N)=O)NC(=O)c1ccc(Nc2nc(NC3(c4ccc(Cl)cc4)CC3)nc(OCC(F)(F)F)n2)cc1` [Compound 1009, (S)-methyl 4-(2-amino-2-oxoacetamido)-2-(4-(4-(1-(4-chlorophenyl)cyclopropylamino)-6-(2,2,2-trifluoroethoxy)-1,3,5-triazin-2-ylamino)benzamido)butanoate], under setting [1], the pEC50 was 8.00 to 11.00.
As for `O=C(Nc1cc(F)cc(F)c1)C(=O)N(CCO)CCCNC(=O)c1ccc(Nc2nc(NC3(c4ccc(Cl)cc4)CC3)nc(OCC(F)(F)F)n2)cc1` [Compound 3507], the negative-log EC50 (pEC50) under setting [2] was 8.00 to 11.00.
Consider `Cc1cc(NC(=O)C(=O)N(C)CCCNC(=O)c2ccc(Nc3nc(NC4(c5ccc(Cl)cc5)CC4)nc(OCC(F)(F)F)n3)cc2)no1` [Compound 3446], for which, under setting [2], the pEC50 is 8.00 to 11.00.
On the same count and under the same terms, the same measure for `CC(C)(CNC(=O)C(=O)Nc1ccc(Cl)cc1)CNC(=O)c1ccc(Nc2nc(NC3(c4ccc(Cl)cc4)CC3)nc(OCC(F)(F)F)n2)cc1F` [Compound 3512]: 8.00 to 11.00.
For `COC(=O)[C@H](CNC(=O)C(=O)NCCn1ccnc1C)NC(=O)c1ccc(Nc2nc(NC3(c4ccc(Cl)cc4)CC3)nc(OCC(F)(F)F)n2)cc1` [Compound 1301], the pEC50 under setting [1] is 8.00 to 11.00.
Regarding `CCOc1ccc(NC(=O)C(=O)NC[C@H](NC(=O)c2ccc(Nc3nc(NC4(c5ccc(Cl)cc5)CC4)nc(OCC(F)(F)F)n3)cc2)C(=O)O)cc1` [Compound 3293], the negative logarithm of the EC50 (pEC50) under setting [2] is 8.00 to 11.00.
For `COC(=O)[C@H](CNC(=O)C(=O)N(C)C)NC(=O)c1ccc(Nc2nc(NC3(c4ccc(Cl)cc4)CC3)nc(OCC(F)(F)F)n2)cc1` [Compound 1004, (S)-methyl 2-(4-(4-(1-(4-chlorophenyl)cyclopropylamino)-6-(2,2,2-trifluoroethoxy)-1,3,5-triazin-2-ylamino)benzamido)-3-(2-(dimethylamino)-2-oxoacetamido)propanoate], the negative logarithm of the EC50 (pEC50) by setting is: (Huh-7, 48 h, HCV pseudoparticle infection of Huh7 cells, luciferase 2 days after infection, average of duplicates) 8.32; under setting [1], 8.00 to 11.00.
In the case of `CC(C)(CNC(=O)C(=O)Nc1ccccc1C(=O)c1ccccc1)CNC(=O)c1ccc(Nc2nc(NC3(c4ccc(Cl)cc4)CC3)nc(OCC(F)(F)F)n2)cc1` [Compound 3141], the negative-log EC50 (pEC50) under setting [4] was 9.96 and the pEC50 under setting [2] was 8.00 to 11.00.
On to `COC(=O)[C@@H](CCNC(=O)C(O)NCC1CC1c1cccc(F)c1)NC(=O)c1ccc(Nc2nc(NC3(c4ccc(Cl)cc4)CC3)nc(OCC(F)(F)F)n2)cc1` (stereo partly drawn) [Compound 1376], for which the pEC50 under setting [1] was 8.00 to 11.00.
Still for that read-out and setting: next, `COC(=O)[C@H](CCNC(=O)C(=O)NCC1OCCc2ccccc21)NC(=O)c1ccc(Nc2nc(NC3(c4ccc(Cl)cc4)CC3)nc(OCC(F)(F)F)n2)cc1` (stereo partly drawn) [Compound 1320]: 8.00 to 11.00.
On to `O=C(NCC[C@H](NC(=O)c1ccc(Nc2nc(NC3(c4ccc(Cl)cc4)CC3)nc(OCC(F)(F)F)n2)cc1)C(=O)O)C(=O)Nc1ccccc1` [Compound 1433], for which the negative-log EC50 (pEC50) under setting [1] was 8.00 to 11.00.
On to `COc1ccccc1-c1ccccc1NC(=O)C(=O)NCC(C)(C)CNC(=O)c1ccc(Nc2nc(NC3(c4ccc(Cl)cc4)CC3)nc(OCC(F)(F)F)n2)cc1` [Compound 3050], for which, under setting [2], the pEC50 is 8.00 to 11.00.
In the case of `O=C(NC[C@H](NC(=O)c1ccc(Nc2nc(NC3(c4ccc(Cl)cc4)CC3)nc(OCC(F)(F)F)n2)cc1)C(=O)O)C(=O)Nc1cccc(-c2cnco2)c1` [Compound 3752], the pEC50 under setting [3] was 8.00 to 11.00.
Regarding `CC(C)c1cccc(NC(=O)C(=O)NC[C@H](NC(=O)c2ccc(Nc3nc(NC4(c5ccc(Cl)cc5)CC4)nc(OCC(F)(F)F)n3)cc2)C(=O)O)c1` [Compound 3758], the negative logarithm of the EC50 (pEC50) is 9.27 under setting [5] and 8.00 to 11.00 under setting [3].
For `COC(=O)[C@H](CCNC(=O)C(=O)Nc1ccc(-c2ccno2)cc1)NC(=O)c1ccc(Nc2nc(NC3(c4ccc(Cl)cc4)CC3)nc(OCC(F)(F)F)n2)cc1` [Compound 3316], the negative logarithm of the EC50 (pEC50) under setting [2] was 8.00 to 11.00.
Take `Cn1nccc1NC(=O)C(=O)NC[C@H](NC(=O)c1ccc(Nc2nc(NC3(c4ccc(Cl)cc4)CC3)nc(OCC(F)(F)F)n2)cc1)C(=O)O` [Compound 1368]: under setting [1], the negative logarithm of the EC50 (pEC50) was 8.00 to 11.00.
As for `O=C(NCC[C@H](NC(=O)c1ccc(Nc2nc(NC3(c4ccc(Cl)cc4)CC3)nc(OCC(F)(F)F)n2)cc1)C(=O)O)C(=O)Nc1ccc(Oc2ccccc2)nc1` [Compound 3640], the pEC50 is 7.79 under setting [5] and 6.00 to 8.00 under setting [3].
Regarding `Cn1ccc(NC(=O)C(=O)NCC[C@H](NC(=O)c2ccc(Nc3nc(NC4(c5ccc(Cl)cc5)CC4)nc(OCC(F)(F)F)n3)cc2)C(=O)O)n1` [Compound 1263], the negative-log EC50 (pEC50) under setting [1] was 8.00 to 11.00.
Still for that read-out and setting: the same measure for `CC(C)(CNC(=O)C(=O)Nc1cccc(F)c1)CNC(=O)c1ccc(Nc2nc(NC3(c4ccc(Cl)cc4)CC3)nc(OCC(F)(F)F)n2)cc1` [Compound 1546]: 8.00 to 11.00.
`Cc1ccc(NC(=O)C(=O)NCC(C)(C)CNC(=O)c2ccc(Nc3nc(NC4(c5ccc(Cl)cc5)CC4)nc(OCc4cccc(F)c4)n3)cc2)cc1` [Compound 3846]: the negative logarithm of the EC50 (pEC50) under setting [3] was 8.00 to 11.00.
On to `O=C(NC/C(=N/C(=O)c1ccc(Nc2nc(NC3(c4ccc(Cl)cc4)CC3)nc(OCC(F)(F)F)n2)cc1)C(=O)O)C(=O)Nc1ccc(C2CCCCC2)cc1` [Compound 3147], for which, under setting [2], the pEC50 was 8.00 to 11.00.
On to `O=C(NCC[C@H](NC(=O)c1ccc(Nc2nc(NC3(c4ccc(Cl)cc4)CC3)nc(OCC(F)(F)F)n2)cc1)C(=O)O)C(=O)Nc1ccc(F)cc1` [Compound 1272], for which the pEC50 under setting [1] is 8.00 to 11.00.
